Test results reported in US10463671B2, “Combination therapy for treating cancer” (Epizyme, Inc., priority 2013, dated 2019).
pIC50: −log10 of the molar value. Where two headings read alike, the source gives them in different places. Marks after values point to notes of the source that are not given here.

Assays:
WSU-DLCL2 cells = assay: Medium throughput combination proliferation assay (CellTiter-Glo, Chou-Talalay CI / potency shift); conditions: for pIC50: Homo sapiens, WSUDLCL2, 72 h, read-out: Potency (IC50); for Summary of Combinations with Compound 44: WSU-DLCL2 (EZH2 Mutant GCB), drug combined with Compound 44; for 1/α: combination with Compound 44; for growth inhibition by the drug by itself: WSU-DLCL2 (EZH2 mutant)
SU-DHL-10 cells = assay: as above; conditions: for CI range (combination index) / 1/α: SU-DHL-10; for CI range (combination index): combination with Compound 44 at constant ratio, CI range above Fractional effect of 0.5; for pIC50: read-out: Potency (IC50), SU-DHL-10 (GCB sub-type EZH2 Y646F), after 3 days of dosing; for pIC50 / growth inhibition by the drug by itself: single agent; for Summary of Combinations with Compound 44: SU-DHL10 (EZH2 Mutant GCB), drug combined with Compound 44; for 1/α: combination with Compound 44; for growth inhibition by the drug by itself: SU-DHL10 (EZH2 mutant)
DOHH2 cells = assay: as above; conditions: for pIC50: read-out: Potency (IC50), DOHH-2 (GCB sub-type WT EZH2), single agent, after 3 days of dosing; for 1/α: DOHH2, combination with Compound 44, data normalized to individual 6438 concentrations instead of DMSO; for Summary of Combinations with Compound 44: DOHH2 (EZH2 WT GCB), drug combined with Compound 44
SU-DHL-5 cells = assay: as above; conditions: for pIC50: Homo sapiens, SU-DHL-5, 72 h, read-out: Potency (IC50); for 1/α: combination with Compound 44
OCI-LY19 cells = assay: as above; conditions: for pIC50: Homo sapiens, OCI-LY19, 72 h, read-out: Potency (IC50); for 1/α: OCI-LY19, combination with Compound 44
Toledo cells = assay: as above; conditions: for pIC50: read-out: Potency (IC50), single agent, dosed for 5 days; for pIC50 / 1/α: Toledo; for 1/α: combination with Compound 44; for Summary of Combinations with Compound 44: Toledo (EZH2 WT GCB), drug combined with Compound 44
SU-DHL6 cells = assay: as above; format: cell-based; conditions: SU-DHL6 (EZH2 Mutant GCB); drug combined with Compound 44
[1] = test system: Sestrin 1 (SESN1), TNF and GILZ expression; conditions: all cell lines; 4 days
Method: Gene expression was normalized to array's B2M and fold change compared to DMSO was calculated using the ΔΔCt method.

H3K27 acetylation levels = conditions: WSU-DLCL2, OCI-LY19, RL cells; 4 days
Method: Acid extracted histones were analyzed by western blot for H3K27 acetylation levels.

H3K27Me3 levels = conditions: single agent, four day treatment

Compound	pIC50 (WSU-DLCL2 cells)	pIC50 (SU-DHL-10 cells)	pIC50 (DOHH2 cells)	pIC50 (SU-DHL-5 cells)	pIC50 (OCI-LY19 cells)	1/α (OCI-LY19 cells)	pIC50 (Toledo cells)	1/α (DOHH2 cells)	1/α (Toledo cells)	Summary of Combinations with Compound 44 (WSU-DLCL2 cells)	Summary of Combinations with Compound 44 (SU-DHL-10 cells)	also measured
COC1=CC(c2cc3ccccc3[nH]2)=N/C1=C\c1[nH]c(C)cc1C [Obatoclax]	7.23	7.71	7.29	8.01	7.38	1.50	7.02	–	–	–	–	CI range (combination index) (WSU-DLCL2 cells; WSU-DLCL2, combination with Compound 44 at constant ratio, CI range above Fractional effect of 0.5): 1.10^e; CI range (combination index) (SU-DHL-10 cells): 0.91-1.36^e; CI range (combination index) (SU-DHL-5 cells; SU-DHL-5, combination with Compound 44 at constant ratio, CI range above Fractional effect of 0.5): 1.26-1.61^e
CC(C)C[C@H](NC(=O)[C@H](Cc1ccccc1)NC(=O)c1cnccn1)B(O)O [Bortezomib]	8.19	8.07	8.18	8.40	7.92	1.67	8.37	0.96	0.96	–	–	–
CC[C@H](Nc1ncnc2[nH]cnc12)c1nc2cccc(F)c2c(=O)n1-c1ccccc1 [Idelalisib]	5.69	5.07	5.53	5.59	< 5.00	No effect	5.01	0.59	1.1^	very strong synergy	very strong synergy	–
Rituximab: the antibody combined with chemotherapeutics in R-CHOP, targets cd-20	–	–	–	–	–	–	–	–	–	–	–	1/α (WSU-DLCL2 cells; WSU-DLCL2): 2.6; Potency (IC50), Rituximab (WSU-DLCL2 cells; WSU-DLCL2, single agent, after 3 days of dosing): >10^a μg/ml
CC1(C)CCC(c2ccc(Cl)cc2)=C(CN2CCN(c3ccc(C(=O)NS(=O)(=O)c4ccc(N[C@H](CCN5CCOCC5)CSc5ccccc5)c(S(=O)(=O)C(F)(F)F)c4)cc3)CC2)C1 [Navitoclax]	5.45	< 5.00	6.27	< 5.00	6.88	6.60	6.23	–	No effect	–	–	1/α (SU-DHL-5 cells; SU-DHL-5): No Effect
C[C@@H]1C[C@H]2[C@@H]3CCC4=CC(=O)C=C[C@]4(C)[C@@]3(F)[C@@H](O)C[C@]2(C)[C@@]1(O)C(=O)CO [Dexamethasone]	< 5.00	< 7.00	8.25	8.47	7.10	7.7	< 7.00	4.2	No effect	–	–	1/α (SU-DHL-10 cells): 3.7; Summary of Combinations with Compound 44 (Toledo cells): No effect
CO[C@H]1C[C@@H]2CC[C@@H](C)[C@@](O)(O2)C(=O)C(=O)N2CCCC[C@H]2C(=O)O[C@H]([C@H](C)C[C@@H]2CC[C@@H](OCCO)[C@H](OC)C2)CC(=O)[C@H](C)/C=C(\C)[C@@H](O)[C@@H](OC)C(=O)[C@H](C)C[C@H](C)/C=C/C=C/C=C/1C [Everolimus]	9.19	9.07	9.89	9.14	–	No effect	10.00	–	No effect	very strong synergy	very strong synergy	–
C=CC(=O)N1CCC[C@@H](n2nc(-c3ccc(Oc4ccccc4)cc3)c3c(N)ncnc32)C1 [Ibrutinib]	6.56	5.94	6.02	5.88	< 5.00	No effect	< 5.00	0.67	No effect	–	–	–
C[C@]12C=CC(=O)C=C1CC[C@@H]1[C@@H]2[C@@H](O)C[C@@]2(C)[C@H]1CC[C@]2(O)C(=O)CO [Prednisolone]	–	< 6.00	6.88	7.41	7.33	4.2	< 6.00	9.5	No effect	Synergy	Synergy	Summary of Combinations with Compound 44 (SU-DHL6 cells): Synergy; TSC22D3/GILZ expression [1]: up-regulated; global H3K27 acetylation levels (H3K27 acetylation levels): not affected; H3K27Me3 levels (H3K27Me3 levels; OCI-LY19 cells): increase H3K27Me3 levels at higher doses; H3K27Me3 levels (H3K27Me3 levels; RL cells): no effect; H3K27Me3 levels (H3K27Me3 levels; WSU-DLCL2 cells): no effect; growth inhibition by the drug by itself (WSU-DLCL2 cells; single agent): no sensitivity; 1/α (WSU-DLCL2 cells; WSU-DLCL2): 9.7; growth inhibition by the drug by itself (SU-DHL-10 cells): no sensitivity; 1/α (SU-DHL-10 cells): 4.2; Summary of Combinations with Compound 44 (DOHH2 cells): Synergy; potency of the glucocorticoid agonist with addition of Compound 44 (DOHH2 cells; DOHH2 EZH2 wild-type cells): increased; Summary of Combinations with Compound 44 (SU-DHL-5 cells; SU-DHL5 (EZH2 WT GCB), drug combined with Compound 44): Synergy; 1/α (SU-DHL-5 cells; SU-DHL-5): 7.6; Summary of Combinations with Compound 44 (OCI-LY19 cells; OCI-LY-19 (EZH2 WT GCB), drug combined with Compound 44): Synergy; Summary of Combinations with Compound 44 (Toledo cells): No effect
CC(=O)Nc1cccc(-n2c(=O)n(C3CC3)c(=O)c3c(Nc4ccc(I)cc4F)n(C)c(=O)c(C)c32)c1 [Trametinib]	5.07	< 5.00	< 5.00	< 5.00	< 5.00	No effect	< 5.00	–	No effect	–	–	–
CC1(C)CCC(CN2CCN(c3ccc(C(=O)NS(=O)(=O)c4ccc(NCC5CCOCC5)c([N+](=O)[O-])c4)c(Oc4cnc5[nH]ccc5c4)c3)CC2)=C(c2ccc(Cl)cc2)C1 [ABT-199]	5.71	5.52	7.11	< 5.00	7.28	4.20	6.72	–	–	–	–	CI range (combination index) (SU-DHL-10 cells): 1.2-1.4^e; 1/α (SU-DHL-5 cells; SU-DHL-5): No Effect
COc1cccc2c1C(=O)c1c(O)c3c(c(O)c1C2=O)C[C@@](O)(C(=O)CO)C[C@@H]3O[C@H]1C[C@H](N)[C@H](O)[C@H](C)O1 [Doxorubicin]	–	–	–	–	–	–	–	–	–	Synergy	Additive	Summary of Combinations with Compound 44 (SU-DHL6 cells): Additive; growth inhibition by the drug by itself (WSU-DLCL2 cells; single agent): concentration-dependent growth inhibition; growth inhibition by the drug by itself (SU-DHL-10 cells): concentration-dependent growth inhibition; Summary of Combinations with Compound 44 (DOHH2 cells): No effect; Summary of Combinations with Compound 44 (Toledo cells): No effect
NC1(c2ccc(-c3nc4ccn5c(=O)[nH]nc5c4cc3-c3ccccc3)cc2)CCC1 [MK-2206]	6.90	6.56	7.07	6.79	6.52	71.40	7.02	0.64	–	very strong synergy	very strong synergy	–
COc1cc(Nc2ncc(F)c(Nc3ccc4c(n3)NC(=O)C(C)(C)O4)n2)cc(OC)c1OC [Tamatinib]	5.47	5.65	5.92	5.42	< 5.00	No effect	5.49	0.81	No effect	very strong synergy	very strong synergy	–
CC[C@]1(O)C[C@H]2CN(CCc3c([nH]c4ccccc34)[C@@](C(=O)OC)(c3cc4c(cc3OC)N(C=O)[C@H]3[C@@](O)(C(=O)OC)[C@H](OC(C)=O)[C@]5(CC)C=CCN6CC[C@]43[C@@H]65)C2)C1 [Vincristine]	–	–	–	–	–	–	–	–	–	Additive	Additive	Summary of Combinations with Compound 44 (SU-DHL6 cells): Additive; Summary of Combinations with Compound 44 (WSU-DLCL2 cells; listed as vincristine): Combination benefit; growth inhibition by the drug by itself (WSU-DLCL2 cells; single agent): concentration-dependent growth inhibition; Summary of Combinations with Compound 44 (SU-DHL-10 cells; listed as vincristine): Combination benefit; growth inhibition by the drug by itself (SU-DHL-10 cells): concentration-dependent growth inhibition; Summary of Combinations with Compound 44 (DOHH2 cells): No effect; Summary of Combinations with Compound 44 (Toledo cells): No effect
